Measured values taken from patent US20080063699A1, “Method of Administering Cationic Liposomes Comprising an Active Drug” (priority 2003, published 2008).
Values after ≈ are worked out from the molar mass of the structure shown. Values joined by “and” are separate entries in the source; they are usually repeats but may differ in a detail not shown here. Identical values can stand only once. Like-named read-outs stand apart in the source and are kept apart here.

How the values were obtained:
[1] = tested on: Solid orthotopic L3.6pl pancreas tumor; assay: Anti-tumor efficacy in combination with gemcitabine (50 mg/kg); format: in vivo; details: for tumor size: day 28 after tumor inoculation, after harvest
Source text: • Species: male Balb/c nu/nu mice • Tumor model: Solid orthotopic L3.6pI pancreas tumor (highly mestastatic; Bruns C J, Harbison M T, Kuniyasu H, Eue I, Fidler I J. In vivo selection and characterization of metastatic variants from human pancreatic adenocarcinoma by using orthotopic implantation in nude mice. Neoplasia 1999; 1(1):50-62.) • Supplier: Charles River France
Tumor volume palpated at day 10, 12, 14, 17, 19, 21, 24 after inoculation and at day 26, 28 after harvesting
Necrospy after harvest at day 26 and 28

[2] = tested on: Solid orthotopic L3.6pl pancreas tumor; assay: Anti-tumor efficacy in combination with gemcitabine (100 mg/kg); details: for final tumor volume compared to the control group: day 27, Gemzar 100 mg/kg i.p., MBT-0206/paclitaxel 5 mg/kg i.v.
Description: Tumor size of L3.6pI pancreatic tumors 19 days after start of treatment. Treatment with 10% trehalose, paclitaxel, MBT-0206, Gemzar (gemcitabine) and the combination of both MBT-0206 and Gemzar started 8 days after tumor cell inoculation. Gemzar was applied i.p. at a dose of 100 mg/kg bw twice a week (Mon, Thu). paclitaxel and MBT-0206 were applied i.v. on a Mon, Wed, Fri schedule at a paclitaxel dose of 5 mg/kg bw. The combination group received both MBT-0206 and Gemzar with the respective schedule. Tumors were measured by palpation with a calliper on day 23 and 27. Mean±SEM; n=9 per group.
Metastases at day 19 after start of treatment. Treatment with 10% trehalose, paclitaxel, MBT-0206, Gemzar (gemcitabine) and the combination of both MBT-0206 and Gemzar started at day 8 after tumor cell inoculation. Geinzar was applied i.p. at a dose of 100 mg/kg bw twice a week (Mon, Thu). paclitaxel and MBT-0206 were applied i.v. on a Mon, Wed, Fri schedule at a paclitaxel dose of 5 mg/kg bw. The combination group received both MBT-0206 and Gemzar with the respective schedule, n=9 per group.
Tumor volume palpated at day 23, 26 after inoculation and after harvesting
Necrospy after harvest at day 27

Sk-Mel28 tumor = assay: Paclitaxel-resistant melanoma model with human skin transplants in vivo; set-up: species or system SCID mice; details: 12.5 mg/kg b.w. every second day
Description: (§1) 2. […] In vivo, these cells were injected into SCID mice bearing human skin transplants between human skin transplant and mouse acceptor skin. Treatments were started on day 17 after tumor cell injection and extended to day 28 with doses (12.5 mg/kg b.w.) every second day. The therapeutic potential of MBT-0206 and paclitaxel were compared on day 7 after start of treatments (see table below). […] Upon treatment with MBT-0206, tumors only marginally grew to about 1/10 the size of paclitaxel (paclitaxel)-treated tumors.
Mes-SA/Dx-5MBT tumor model: tumor volumes on day 23 after start of treatment (9 treatments, i.e. 3 per week, from day 12 to day 31 after tumor cell injection) Sk-Mel tumor model: tumor volumes on day 7 after start of treatment (6 treatments very other day, i.e. from day 17 to day 28 after tumor cell injection).

[3] = tested on: highly drug-resistant uterus sarcoma line Mes-SA/Dx-5MBT; assay: Growth inhibitory assay (MTT, 72 h); format: cell-based, human; details: for IC50: Homo sapiens, MES-SA
Description: (§2) FIG. 3-5: The growth inhibitory assay was performed in 24-well plates with each drug concentration tested in duplicate (n=2 wells). 4×10^4 cells per well were seeded into a 24-well plate and incubated over night. The following day, 10-11 concentrations of the respective drug formulation were added for 72 h to cover the range depicted in the respective graphs. Finally, the cell viability was determined by a standard MTT-assay measuring the activity of mitochondrial-dehydrogenases.
as §2, with “The” for “FIG. 3-5: The”, “mitochondrial dehydrogenases.” for “mitochondrial-dehydrogenases.”
These cell lines were selected by stepwise increasing the concentration of paclitaxel in the culture medium.
(§3) The highly paclitaxel resistant derivative cell line Mes-SA/Dx-5MBT was selected with increasing paclitaxel concentrations from the commercially available line Mes-SA/Dx-5 (ATCC, {Harker, 1986 #29}).

[4] = tested on: highly drug-resistant murine colon carcinoma line Colon-26MBT; assay: Growth inhibitory assay (MTT, 72 h); format: cell-based; details: Mus musculus
Description: as §2, with “6-7:” for “3-5:”, “mitochondrial dehydrogenases.” for “mitochondrial-dehydrogenases.”

[5] = tested on: parental drug-sensitive murine colon carcinoma line Colon-26; assay: Growth inhibitory assay (MTT, 72 h); format: cell-based; details: FIG. 7
Description: as §2, with “6-7:” for “3-5:”, “mitochondrial dehydrogenases.” for “mitochondrial-dehydrogenases.”

[6] = tested on: drug-resistant human dermal melanoma line Sk-Mel28; assay: Growth inhibitory assay (MTT, 72 h); format: cell-based; details: SK-MEL-28, FIG. 10
Description: as §2, with “10: Inhibitory Potential of paclitaxel against the drug-resistant human dermal melanoma line Sk-Mel28.” for “3-5:”, “11” for “10-11”, “mitochondrial dehydrogenases.” for “mitochondrial-dehydrogenases.”
as §1

[7] = tested on: moderatly drug-resistant uterus sarcoma line Mes-SA/Dx-5; assay: Growth inhibitory assay (MTT, 72 h); format: cell-based, human
Description: as §2, §3

[8] = tested on: drug-sensitive human uterus sarcoma line Mes-SA; assay: Growth inhibitory assay (MTT, 72 h); format: cell-based; details: FIG. 5
Description: as §2
as §2, with “The” for “FIG. 3-5: The”, “mitochondrial dehydrogenases.” for “mitochondrial-dehydrogenases.”
as §3

Structure (SMILES)	tumor size [1] [mm^3]	mortality at day 24 ([1]; n=9 per group, MBT-0206 5 mg/kg i.v., Gemzar 50 mg/kg i.p.) [animals dead]	final tumor volume compared to the control group [2] [%]	effect on tumor development (Sk-Mel28 tumor)	IC50 (50% growth inhibition) ([3]; 72 h, MTT) [µg/mL]	fold increased paclitaxel tolerance compared to the parental line Mes-SA (by IC50 values) ([3]; FIG. 9) [fold]	IC50 ([3]; 72 h, MTT, read-out: IC50) [µg/mL]	IC50 ([3]; 72 h, MTT, read-out: IC50 (50% growth inhibition))	IC50 ([4]; FIG. 6, read-out: IC50) [µg/mL]	IC50 ([4]; read-out: IC50 (50% growth inhibition))	sensitivity of the line for MBT-0206 and paclitaxel [5]	IC50 [6] [µg/mL]	fold lower IC50 value than in Mes-SA/Dx-5MBT [7]	IC50 [8] [µg/mL]	weight loss (body weight) ([2]; during the last 11 days) [%]
Nc1ccn([C@@H]2O[C@H](CO)[C@@H](O)C2(F)F)c(=O)n1 [Gemzar, gemcitabine]	398	1	47	–	–	–	–	–	–	–	–	–	–	–	–
CC(=O)O[C@H]1C(=O)[C@@]2(C)[C@H]([C@H](OC(=O)c3ccccc3)[C@]3(O)C[C@H](OC(=O)[C@H](O)[C@@H](NC(=O)c4ccccc4)c4ccccc4)C(C)=C1C3(C)C)[C@]1(OC(C)=O)CO[C@@H]1C[C@@H]2O [paclitaxel]	536	–	68	completely ineffective	0.867 (≈ 1.02 µM)	~150	0.87 (≈ 1.02 µM)	~1 µM and ~0.867 µg/mL	~5 (≈ 5.86 µM)	~5 µM and ~5 µg/mL	equally sensitive	5.8 (≈ 6.79 µM)	approximately 7 fold	0.0055 (≈ 0.00644 µM)	2
